Activity calls are given as the source filed them. No cut-off for these calls is given here.
What was measured:
[1] = Effective permeability of compound by […] method; type: ADME; conditions: read-out: Peff
Mus musculus [2] = experiment: Anti-alzheimer activity against APP/PS1 dE9 double transgenic mouse model assessed as time spent in target zone at 60 mg/kg, po administered daily for 2 months and measured after 74 days by Morris water maze test (reference value: 6.76+/-3.20 sec); type: functional; conditions: time 74 day
[3] = Half life in sixteen hrs fasted Sprague-Dawley rat at 3 mg/kg, po measured upto 24 hrs by LC-MS/MS analysis; type: ADME, organism-based; conditions: in vivo
[4] = molecular target: T1, Mitogen-activated protein kinase 9 (Homo sapiens, UniProt P45984); experiment: Inhibition of JNK2 (unknown origin) at 1.0 uM preincubated for 20 mins followed by 33P-ATP addition and measured after 2 hrs by P81 filter binding method relative to control; conditions: time 140.0 min
Target sequence in this assay (P45984 whole entry, looked up): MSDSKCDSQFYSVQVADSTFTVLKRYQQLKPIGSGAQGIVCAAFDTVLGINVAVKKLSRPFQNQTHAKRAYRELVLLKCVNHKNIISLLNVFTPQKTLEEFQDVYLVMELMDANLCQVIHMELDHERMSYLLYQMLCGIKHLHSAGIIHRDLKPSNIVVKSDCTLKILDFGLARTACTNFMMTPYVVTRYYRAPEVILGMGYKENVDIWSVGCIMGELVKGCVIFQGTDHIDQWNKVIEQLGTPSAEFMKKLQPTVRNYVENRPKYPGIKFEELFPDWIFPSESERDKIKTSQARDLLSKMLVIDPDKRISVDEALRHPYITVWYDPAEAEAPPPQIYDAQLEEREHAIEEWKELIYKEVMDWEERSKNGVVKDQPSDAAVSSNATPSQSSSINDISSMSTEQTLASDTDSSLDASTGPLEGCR

[5] = molecular target: Mitogen-activated protein kinase 10 (Rattus norvegicus) (UniProt P49187); experiment: Inhibition of anisomycin induced JNK3 activation in rat cortex neuron cells assessed as reduction in Jun phosphorylation levels at 10 to 20 uM preincubated for 90 mins followed by anisomycin addition and measured after 40 mins by Western blot analysis; type: cell-based; conditions: dose 10-20 µM, time 130.0 min
[6] = Apparent permeability of the compound across apical side to basolateral side in human Caco-2 cells; type: ADME, cell-based
Neuron [7] = experiment: Inhibition of apoptosis in rat cortex neuron cells assessed as prevention of A-beta (1 to 42) induced cleaved PARP formation at 10 to 20 uM measured after 24 hrs by Western blot analysis; type: functional, cell-based; conditions: dose 10-20 µM
[8] = molecular target: T1, Mitogen-activated protein kinase 9; experiment: Inhibition of JNK2 (unknown origin) using ATF2 as substrate incubated for 40 mins in presence of [gamma33P]ATP by scintillation counting analysis
Target sequence in this assay (P45984 whole entry): as the sequence (P45984 whole entry, looked up) above

[9] = molecular target: Mitogen-activated protein kinase 10 (Rattus norvegicus) (UniProt P49187); experiment: Inhibition of anisomycin induced JNK3 activation in rat cortex neuron cells assessed as inhibition of APP phosphorylation at 10 to 20 uM preincubated for 90 mins followed by anisomycin addition and measured after 40 mins by Western blot analysis; type: cell-based; conditions: dose 10-20 µM
Mus musculus [10] = experiment: Anti-alzheimer activity against triple transgenic mouse alzheimer disease model assessed as reduction in tau phosphorylation level at T181 residue in hippocampal tissue at 30 to 60 mg/kg by Western blot analysis; type: functional, organism-based; conditions: dose 30-60 mg/kg
Mus musculus [11] = experiment: Anti-alzheimer activity against triple transgenic mouse alzheimer disease model assessed as time spent in target zone at 30 mg/kg, po administered daily for 2.2 months and measured after 137 days by Morris water maze test (reference value: 4.48+/-1.63 sec); type: functional; conditions: time 137 day
Mus musculus [12] = experiment: Anti-alzheimer activity against APP/PS1 dE9 double transgenic mouse model assessed as time spent in target zone at 30 mg/kg, po administered daily for 2 months and measured after 74 days by Morris water maze test (reference value: 6.76+/-3.20 sec); type: functional; conditions: time 74 day
[13] = AUClast in sixteen hrs fasted Sprague-Dawley rat at 3 mg/kg, po measured upto 24 hrs by LC-MS/MS analysis; type: ADME, organism-based; design: dose 3 mg/kg, time < 24 hrs, route po; conditions: in vivo
Mus musculus [14] = experiment: Anti-alzheimer activity against triple transgenic mouse alzheimer disease model assessed as escape latency time at 30 mg/kg, po measured upto 5 days by Morris water maze test (reference value: 58.62+/-1.15 sec); type: functional; conditions: time <= 5 day
Mus musculus [15] = experiment: Anti-alzheimer activity against APP/PS1 dE9 double transgenic mouse model assessed as spontaneous alteration at 30 mg/kg, po administered daily for 2 months and measured after 57 days by Y-maze test (reference value: 40.75+/-2.25%); type: functional; conditions: time 57 day
[16] = Tmax in sixteen hrs fasted Sprague-Dawley rat at 3 mg/kg, po measured upto 24 hrs by LC-MS/MS analysis; type: ADME, organism-based; conditions: in vivo
[17] = molecular target: Mitogen-activated protein kinase 8 (Homo sapiens, UniProt P45983); experiment: Inhibition of JNK1 (unknown origin) using ATF2 as substrate incubated for 40 mins in presence of [gamma33P]ATP by scintillation counting analysis
Mus musculus [18] = experiment: Anti-alzheimer activity against triple transgenic mouse alzheimer disease model assessed as path length at 30 mg/kg, po measured upto 5 days by Morris water maze test (reference value: 608.85+/-39.27 cm); type: functional; conditions: time <= 5 day
Neuron [19] = experiment: Inhibition of apoptosis in rat cortex neuron cells assessed as prevention of A-beta (1 to 42) induced cleaved caspase-3 formation at 10 to 20 uM measured after 24 hrs by Western blot analysis; type: functional, cell-based; conditions: dose 10-20 µM
Neuron [20] = experiment: Inhibition of anisomycin induced JNK activation in rat cortex neuron cells assessed as fold reduction in Jun phosphorylation levels at 10 to 20 uM preincubated for 90 mins followed by anisomycin addition and measured after 40 mins by Western blot analysis; type: cell-based; conditions: dose 10-20 µM, time 130.0 min
Mus musculus [21] = experiment: Anti-alzheimer activity against triple transgenic mouse alzheimer disease model assessed as path length at 60 mg/kg, po measured upto 5 days by Morris water maze test (reference value: 608.85+/-39.27 cm); type: functional; conditions: time <= 5 day
Neuron [22] = experiment: Neuroprotective activity against rat neuron cells assessed as inhibition of Abeta(1-42)-induced cytotoxicity by measuring increase in cell viability at 20 uM incubated for 24 hrs by MTT assay relative to control; type: functional
[23] = Apparent permeability of the compound across basolateral side to apical side in human Caco-2 cells; type: ADME, cell-based
Mus musculus [24] = experiment: Anti-alzheimer activity against APP/PS1 dE9 double transgenic mouse model assessed as escape latency time at 60 mg/kg, po administered daily for 2 months and measured after 60 days by Passive avoidance test (reference value: 28.6+/-4.3 sec); type: functional; conditions: time 60 day
Mus musculus [25] = experiment: Anti-alzheimer activity against APP/PS1 dE9 double transgenic mouse model assessed as time spent in platform quadrant at 30 mg/kg, po administered daily for 2 months and measured after 74 days by Morris water maze test (reference value: 10.50+/-4.15 sec); type: functional; conditions: time 74 day
Neuron [26] = experiment: Neuroprotective activity against rat neuron cells assessed as inhibition of Abeta(1-42)-induced cytotoxicity by measuring increase in cell viability at 20 uM incubated for 48 hrs by MTT assay relative to control; type: functional
Mus musculus [27] = experiment: Anti-alzheimer activity against triple transgenic mouse alzheimer disease model assessed as escape latency time at 60 mg/kg, po measured upto 5 days by Morris water maze test (reference value: 58.62+/-1.15 sec); type: functional; conditions: time <= 5 day
Mus musculus [28] = experiment: Anti-alzheimer activity against triple transgenic mouse alzheimer disease model assessed as spontaneous alteration at 30 mg/kg, po administered daily for 2.2 months and measured after 119 days by Y-maze test (reference value: 45.55+/-2.30%); type: functional; conditions: time 119 day
Mus musculus [29] = experiment: Anti-alzheimer activity against APP/PS1 dE9 double transgenic mouse model assessed as time spent in platform quadrant at 60 mg/kg, po administered daily for 2 months and measured after 74 days by Morris water maze test (reference value: 10.50+/-4.15 sec); type: functional; conditions: time 74 day
Mus musculus [30] = experiment: Anti-alzheimer activity against triple transgenic mouse alzheimer disease model assessed as time spent in platform quadrant at 30 mg/kg, po administered daily for 2.2 months and measured after 137 days by Morris water maze test (reference value: 12.26+/-2.34 sec); type: functional; conditions: time 137 day
Mus musculus [31] = experiment: Anti-alzheimer activity against APP/PS1 dE9 double transgenic mouse model assessed as escape latency time at 30 mg/kg, po administered daily for 2 months and measured after 60 days by Passive avoidance test (reference value: 28.6+/-4.3 sec); type: functional; conditions: time 60 day

Chain of Mitogen-activated protein kinase 10 (Rattus norvegicus) (P49187 whole entry): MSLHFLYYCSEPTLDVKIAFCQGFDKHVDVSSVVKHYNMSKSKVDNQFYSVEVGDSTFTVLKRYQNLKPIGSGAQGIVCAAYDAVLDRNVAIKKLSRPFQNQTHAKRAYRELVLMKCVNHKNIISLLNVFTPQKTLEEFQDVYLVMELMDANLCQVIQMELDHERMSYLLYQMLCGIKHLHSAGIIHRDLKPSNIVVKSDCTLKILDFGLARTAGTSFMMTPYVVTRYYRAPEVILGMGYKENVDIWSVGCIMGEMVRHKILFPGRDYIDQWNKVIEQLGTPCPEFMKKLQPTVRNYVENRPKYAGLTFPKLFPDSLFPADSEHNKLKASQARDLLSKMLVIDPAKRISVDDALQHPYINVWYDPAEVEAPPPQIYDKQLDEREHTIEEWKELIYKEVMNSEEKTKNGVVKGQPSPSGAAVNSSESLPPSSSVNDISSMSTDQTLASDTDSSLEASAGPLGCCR
Chain of Mitogen-activated protein kinase 8 (P45983 whole entry): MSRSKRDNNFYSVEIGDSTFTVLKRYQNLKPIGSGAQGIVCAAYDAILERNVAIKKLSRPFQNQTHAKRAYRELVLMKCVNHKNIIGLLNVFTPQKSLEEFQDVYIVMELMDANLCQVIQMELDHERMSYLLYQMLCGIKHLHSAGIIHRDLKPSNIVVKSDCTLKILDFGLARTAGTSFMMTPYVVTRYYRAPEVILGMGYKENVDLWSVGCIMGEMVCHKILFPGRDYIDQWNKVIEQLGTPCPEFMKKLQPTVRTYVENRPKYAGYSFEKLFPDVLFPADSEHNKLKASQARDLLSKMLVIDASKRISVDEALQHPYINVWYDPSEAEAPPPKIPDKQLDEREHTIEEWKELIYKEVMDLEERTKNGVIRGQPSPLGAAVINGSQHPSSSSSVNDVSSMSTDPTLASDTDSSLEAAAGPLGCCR

SMILES: CNC(=O)Oc1cc(F)c2nc(-c3ccc4ccccc4c3)n(-c3ccnc(N[C@H]4CCCN(C(=O)C5CC5)C4)n3)c2c1
- Papp [1]: 55.8 ×10⁻⁶ cm/s
- Time (Mus musculus [2]): 16.27 s
- half-life [3]: 58.2 min
- inhibition [4]: 20%
- inhibition [5]: Active
- Papp A→B [6]: 1.7 ×10⁻⁶ cm/s
- inhibition (Neuron [7]): Active
- IC50 [8]: 2200 nM
- inhibition [9]: Active
- Activity (Mus musculus [10]): Active
- Time (Mus musculus [11]): 17.1 s
- Time (Mus musculus [12]): 11.4 s
- AUC(0-t) at 24 h [13]: 727 ng·h/mL
- Time (Mus musculus [14]): 26.61 s
- Activity (Mus musculus [15]): 50.6%
- Tmax [16]: 23.4 min
- IC50 [17]: > 10000 nM
- Activity (Mus musculus [18]): 402.59 cm
- inhibition (Neuron [19]): Active
- fold change (FC) (Neuron [20]): 2
- Activity (Mus musculus [21]): 372.7 cm
- Activity (Neuron [22]): 47.5%
- Papp B→A [23]: 25.2 ×10⁻⁶ cm/s
- Time (Mus musculus [24]): 46.5 s
- Time (Mus musculus [25]): 16.44 s
- Activity (Neuron [26]): 28.4%
- Time (Mus musculus [27]): 25.72 s
- Activity (Mus musculus [28]): 49.78%
- Time (Mus musculus [29]): 21.78 s
- Time (Mus musculus [30]): 23.4 s
- Time (Mus musculus [31]): 44.2 s
